For data set [1], the system named is distal colon (colitis). As to conditions: rats, colitis by intraluminal trinitrobenzene sulfonic acid in 50% ethanol; cited from earlier work.
In data set [2] the test system is heart (ischemia and reperfusion). As to conditions: rabbits, cited from earlier work.
In data set [3] the target is T1, TANK-2 enzyme (Homo sapiens, UniProt Q9H2K2).
T1 construct: His tag (inferred from capture on a Ni-coated plate); made in house
T1 sequence (Q9H2K2 1-1166): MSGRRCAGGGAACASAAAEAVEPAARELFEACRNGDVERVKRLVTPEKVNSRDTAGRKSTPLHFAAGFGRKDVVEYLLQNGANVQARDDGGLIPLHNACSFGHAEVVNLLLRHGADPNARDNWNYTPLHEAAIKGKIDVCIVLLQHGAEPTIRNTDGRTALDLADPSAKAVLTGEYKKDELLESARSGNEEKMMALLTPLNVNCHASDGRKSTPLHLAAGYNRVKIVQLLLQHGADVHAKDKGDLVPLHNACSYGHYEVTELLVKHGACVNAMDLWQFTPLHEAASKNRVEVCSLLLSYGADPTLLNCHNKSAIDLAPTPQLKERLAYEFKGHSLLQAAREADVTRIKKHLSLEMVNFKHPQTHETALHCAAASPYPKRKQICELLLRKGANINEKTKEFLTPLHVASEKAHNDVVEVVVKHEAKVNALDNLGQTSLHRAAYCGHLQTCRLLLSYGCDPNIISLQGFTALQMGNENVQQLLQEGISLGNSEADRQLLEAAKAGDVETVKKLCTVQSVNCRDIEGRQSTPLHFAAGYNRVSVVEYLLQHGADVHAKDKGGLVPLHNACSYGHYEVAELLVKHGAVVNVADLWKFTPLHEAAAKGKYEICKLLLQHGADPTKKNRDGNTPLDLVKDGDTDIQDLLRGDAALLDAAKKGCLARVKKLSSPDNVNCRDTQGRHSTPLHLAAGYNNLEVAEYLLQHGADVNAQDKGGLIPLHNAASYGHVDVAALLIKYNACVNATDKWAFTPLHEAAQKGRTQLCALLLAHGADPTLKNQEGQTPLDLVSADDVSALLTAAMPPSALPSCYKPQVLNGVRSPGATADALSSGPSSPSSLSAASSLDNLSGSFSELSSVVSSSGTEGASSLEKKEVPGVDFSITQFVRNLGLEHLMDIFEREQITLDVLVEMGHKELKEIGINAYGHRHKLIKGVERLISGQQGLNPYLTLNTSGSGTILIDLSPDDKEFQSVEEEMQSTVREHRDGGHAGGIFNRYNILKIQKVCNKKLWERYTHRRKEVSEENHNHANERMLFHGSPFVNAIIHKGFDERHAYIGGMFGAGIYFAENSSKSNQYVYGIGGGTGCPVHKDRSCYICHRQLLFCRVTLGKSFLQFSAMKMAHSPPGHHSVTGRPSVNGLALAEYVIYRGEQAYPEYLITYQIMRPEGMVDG
Description: in vitro Scintillation Proximity Assay (SPA) for TANK-2 inhibitory activity. Format: biochemical. The protocol:
In Vitro Scintillation Proximity Assay (SPA) for Tank-2 Inhibitory Activity
Compounds of the present invention were tested in an in vitro assay based on SPA technology with Ni Flash plates (96 or 384 well).
In principle, the assay relies upon SPA technology for the detection of auto-poly(ADP-ribosylation of TANK-2 protein using [^3H]-nicotinamide adenine dinucleotide ([^3H]-NAD^+) as ADP-ribosyl donor.
A stock solution of [^3H]-NAD^+/NAD was made by adding 64.6 μl of [^3H]-NAD^+ (0.1 mCi/ml, supplier: Perkin Elmer) and 46.7 μl NAD-stock (10.7 mM, stored at −20° C., supplier Roche) to 1888.7 μl assay buffer (60 mM Tris/HCl, pH 7.4; 0.9 mM DTT; 6 mM MgCl2). The TANK-2 enzyme was produced as described in EP1238063.60 μl of assay buffer, together with 1 μl of compound in DMSO, 20 μl of [^3H]-NAD^+/NAD and 20 μl of TANK-2 enzyme (final concentration 6 μg/ml) was added per well into a 96-well Ni-coated flash plate (Perkin Elmer). After incubation of the mixture for 120 min. at room temperature, the reaction was terminated by adding 60 μl of stopsolution (42.6 mg NAD in 6 ml H2O). The plates were covered with a plate sealer and placed in a TopCountNXT™ (Packard) for scintillation counting. Values were expressed as counts per minute (cpm). For each experiment, controls (containing TANK-2 enzyme and DMSO without compound), a blank incubation (containing DMSO but no TANK-2 enzyme or compound) and samples (containing TANK-2 enzyme and compound dissolved in DMSO) were run in parallel. All compounds tested were dissolved and eventually further diluted in DMSO. […] In each test, the blank value was subtracted from both the control and the sample values. The control sample represented maximal TANK-2 enzyme activity. For each sample, the amount of cpm was expressed as a percentage of the mean cpm value of the controls. When appropriate, IC50-values (concentration of the drug, needed to reduce the TANK-2 enzyme activity to 50% of the control) were computed using linear interpolation between the experimental points just above and below the 50% level. Herein the effects of test compounds are expressed as pIC50 (the negative log value of the IC50-value). As reference compounds, 3-aminobenzamide and 4-amino-1,8-naphthalimide were included to validate the SPA assay. Herein the assay was described using 96-well plates. In the assay using 384-well plates the same final concentrations were used and volumes were adapted.
(In general: SPA uses beads or plates that emit light when radiolabelled molecules are held near them.)

The target in data set [4] is T2, PARP-1 enzyme (Homo sapiens, UniProt P09874).
T2 construct: made in house
Description: in vitro filtration assay for PARP-1 inhibitory activity. Format: biochemical. As to conditions: [32P]-NAD, histones, nicked DNA; dose-response 10^-5 M to 10^-8 M; read-out: in vitro filter assay PARP-1 pIC50 (converted). The method, then: In Vitro Filtration Assay for PARP-1 Inhibitory Activity
Compounds of the present invention were tested in an in vitro filtration assay assessing PARP-1 activity (triggered in the presence of nicked DNA) by means of its histone poly (ADP-ribosylation activity using [^32P]-NAD as ADP-ribosyl donor. The radioactive ribosylated histones were precipitated by trichloroacetic acid (TCA) in 96-well filterplates and the incorporated [^32P] measured using a scintillation counter
A mixture of histones (stock solution: 5 mg/ml in H2O), NAD^+ (stock solution: 100 mM in H2O), and [^32P]-NAD^+ in incubation buffer (50 mM Tris/HCl, pH 8; 0.2 mM DTT; 4 mM MgCl2) was made. A mixture of the PARP-1 enzyme (5-10 μg/ml) and nicked DNA was also made. The nicked DNA was prepared as described in the in vitro SPA for PARP-1 inhibitory activity. Seventy-five μl of the PARP-1 enzyme/DNA mixture together with 1 μl of compound in DMSO and 25 μl of histones-NAD^+/[^32P]-NAD^+ mixture was added per well of a 96-well filterplate (0.45 μm, supplier Millipore). The final concentrations in the incubation mixture were 2 μg/ml for the histones, 0.1 mM for the NAD^+, […] (0.5 μC) for the [^32P]-NAD^+ and 2 μg/ml for the nicked DNA. Plates were incubated for 15 min. at room temperature and the reaction was terminated by the addition of 10 μl ice cold 100% TCA followed by the addition of 10 μl ice-cold BSA solution (1% in H2O). The protein fraction was allowed to precipitate for 10 min. at 4° C. and plates were vacuum filtered. The plates were subsequently washed with, for each well, 1 ml of 10% ice cold TCA, 1 ml of 5% ice cold TCA and 1 ml of 5% TCA at room temperature. Finally 100 μl of scintillation solution (Microscint 40, Packard) was added to each well and the plates were transferred to a TopCountNXT™ (supplier: Packard) for scintillation counting and values were expressed as counts per minute (cpm). For each experiment, controls (containing PARP-1 enzyme and DMSO without compound), a blank incubation (containing DMSO but no PARP-1 enzyme or compound) and samples (containing PARP-1 enzyme and compound dissolved in DMSO) were run in parallel. All compounds tested were dissolved and eventually further diluted in DMSO. In first instance, compounds were tested at a concentration of 10^−5M. […] In each test, the blank value was subtracted from both the control and the sample values. The control sample represented maximal PARP-1 enzyme activity. For each sample, the amount of cpm was expressed as a percentage of the mean cpm value of the controls. When appropriate, IC50-values (concentration of the drug, needed to reduce the PARP-1 enzyme activity to 50% of the control) were computed using linear interpolation between the experimental points just above and below the 50% level. Herein the effects of test compounds are expressed as pIC50 (the negative log value of the IC50-value). As a reference compound, 4-amino-1,8-naphthalimide was included to validate the filtration assay.

Where a name gives a salt, the structure may show the parent alone. Bounds are passed on as bounds.

As a reminder, the melting point is the temperature of the solid-liquid transition.

T2 sequence (P09874 whole entry): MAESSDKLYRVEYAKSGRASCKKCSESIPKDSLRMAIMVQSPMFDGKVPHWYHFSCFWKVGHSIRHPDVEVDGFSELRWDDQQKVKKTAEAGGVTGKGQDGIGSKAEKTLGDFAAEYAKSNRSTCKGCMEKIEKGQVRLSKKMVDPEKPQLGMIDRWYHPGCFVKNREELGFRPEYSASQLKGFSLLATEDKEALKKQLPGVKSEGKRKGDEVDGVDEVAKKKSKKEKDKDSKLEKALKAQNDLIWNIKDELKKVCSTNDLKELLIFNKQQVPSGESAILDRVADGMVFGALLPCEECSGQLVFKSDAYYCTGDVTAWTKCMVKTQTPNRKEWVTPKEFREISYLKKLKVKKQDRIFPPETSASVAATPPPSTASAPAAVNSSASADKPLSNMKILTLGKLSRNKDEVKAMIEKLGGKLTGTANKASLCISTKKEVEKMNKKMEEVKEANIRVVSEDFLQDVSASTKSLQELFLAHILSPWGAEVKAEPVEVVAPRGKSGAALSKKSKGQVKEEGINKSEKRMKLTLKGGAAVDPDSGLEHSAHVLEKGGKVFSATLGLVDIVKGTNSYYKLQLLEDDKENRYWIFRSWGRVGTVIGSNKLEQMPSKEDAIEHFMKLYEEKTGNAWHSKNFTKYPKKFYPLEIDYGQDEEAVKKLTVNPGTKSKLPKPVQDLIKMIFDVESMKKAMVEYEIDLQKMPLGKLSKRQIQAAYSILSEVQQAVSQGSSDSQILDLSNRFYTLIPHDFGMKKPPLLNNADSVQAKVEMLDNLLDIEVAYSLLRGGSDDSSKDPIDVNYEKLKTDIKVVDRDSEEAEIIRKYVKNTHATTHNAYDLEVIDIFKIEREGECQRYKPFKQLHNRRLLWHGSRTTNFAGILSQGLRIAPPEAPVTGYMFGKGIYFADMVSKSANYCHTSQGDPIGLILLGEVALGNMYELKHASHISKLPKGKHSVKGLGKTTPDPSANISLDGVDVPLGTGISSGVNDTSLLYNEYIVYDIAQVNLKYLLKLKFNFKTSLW

For the compound `NC(=O)c1cccc(N)c1` [3-amino-benzamide], in data set [1], the “effect on inflammatory response and distal colon” value is “reduced the inflammatory response”. Also, the “reductions in infarct size in the heart” value in data set [2] (single injection 10 mg/kg, one minute before occlusion or one minute before reperfusion) is reported as 32-42%.

`CCOC(=O)N1CCC(Nc2nnc(Cl)c3ccc([N+](=O)[O-])cc23)CC1` [Compound 20] gave a melting point of 199 °C. The compound also showed an IC50 in data set [3] of more than 10 µM.

As for `NC(=O)N1CCC(c2n[nH]c(=O)c3ccccc23)CC1` [Compound 6], the melting point is more than 300 °C. Also, in data set [4], the IC50 is 0.195 µM. Moreover, the IC50 in data set [3] is more than 10 µM.

For the compound `N#CCN1CCC(c2n[nH]c(=O)c3ccccc23)CC1` [Compound 7], the melting point is 259 °C. Also, the IC50 in data set [4] was 0.0889 µM. This compound showed an IC50 in data set [3] of 9.62 µM.

In the case of `CCOC(=O)N1CC[C@H](Nc2n[nH]c(=O)c3ccccc23)C[C@@H]1Cc1ccccc1` [Compound 16], the melting point is 140 °C. For the same compound, the IC50 in data set [4] is 0.378 µM. The IC50 in data set [3] is more than 10 µM.

The compound `Clc1nnc(NC2CCN(Cc3ccccc3)C2)c2ccccc12` (centres unmarked) (as salt: HCl) (hydrate or solvate) [Compound 12] displayed a melting point of 171.8 °C.

`O=c1[nH]nc(C2CCN(CC(O)COc3ccc(F)cc3)CC2)c2ccccc12` (centres unmarked) [Compound 2] displayed a melting point of 226.9 °C. Further, the IC50 in data set [4] is 0.0172 µM.

`O=c1[nH]nc(C2CCN(CCCOc3ccc(F)cc3)CC2)c2ccccc12` (as salt: HCl) [Compound 13] gave a melting point of 227.6 °C.

For the compound `NCC1CCN(c2n[nH]c(=O)c3ccccc23)CC1` [Compound 9], the melting point was found to be 182 °C. For the same compound, in data set [4], the IC50 was 0.0155 µM. The IC50 in data set [3] was more than 10 µM.

The compound `N#CC1CCN(c2n[nH]c(=O)c3ccccc23)CC1` [Compound 18] had a melting point of 253 °C.

The compound `CCOC(=O)N1CC[C@H](Nc2nnc(Cl)c3ccccc23)C[C@@H]1Cc1ccccc1` [Compound 19] showed a melting point of 161 °C. This compound gave an IC50 in data set [3] of more than 10 µM.

The compound `CC(=O)N1CCC(c2n[nH]c(=O)c3ccccc23)CC1` [Compound 5] displayed a melting point of 222 °C. Moreover, in data set [4], the IC50 is 0.27 µM. In data set [3], this compound showed an IC50 of more than 10 µM.

The compound `Nc1ccc2c(=O)[nH]nc(NC3CCNCC3)c2c1` (as salt: HCl) (hydrate or solvate) [Compound 14] came in with a melting point of more than 300 °C.

In the case of `Oc1cccc2c(O)nccc12` [1,5-dihydroxyisoquinoline], the reduced infarct size in data set [2] (single injection 1 mg/kg) was 38-48%.

The compound `O=c1[nH]nc(C2CCNCC2)c2ccccc12` (hydrate or solvate) [Compound 4] showed a melting point of 264.9 °C.

With `O=c1[nH]nc(N[C@H]2CCN[C@@H](Cc3ccccc3)C2)c2ccccc12` [Compound 10], the melting point was determined as 238 °C. In addition, the IC50 in data set [4] was 0.0243 µM. In data set [3], the IC50 is more than 10 µM.

`NCCN1CCC(c2n[nH]c(=O)c3ccccc23)CC1` [Compound 8] displayed a melting point of 202 °C. Further, the IC50 in data set [4] was 0.029 µM. Besides, in data set [3], the IC50 is more than 10 µM.

These data come from US7803795B2, “Phthalazine derivatives as parp inhibitors” (Janssen Pharmaceutica N.V., priority 2004, dated 2010).
